Data from PubChem BioAssay (NCI).
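Exposure lasted 48 hours, with cells grown in 96-well plates and compounds tested at five concentrations. At the TGI there is no net growth.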

Columns and labels:
Assay in all cases: inhibition of tumour cell growth, NCI panel, 48 h
SK-MEL-2 melanoma = test system: SK-MEL-2 melanoma
OVCAR-8 ovarian = test system: OVCAR-8 ovarian
SW-620 colon = test system: SW-620 colon
NCI-H460 lung = test system: NCI-H460 lung
TK-10 renal = test system: TK-10 renal
T-47D breast = test system: T-47D breast
SN12C renal = test system: SN12C renal
NCI/ADR-RES ovarian = test system: NCI/ADR-RES ovarian
SF-539 CNS = test system: SF-539 CNS
MCF7 breast = test system: MCF7 breast
SF-268 CNS = test system: SF-268 CNS
CAKI-1 renal = test system: CAKI-1 renal
MOLT-4 leukemia = test system: MOLT-4 leukemia
HS 578T breast = test system: HS 578T breast
CCRF-CEM leukemia = test system: CCRF-CEM leukemia
NCI-H23 lung = test system: NCI-H23 lung
RXF 393 renal = test system: RXF 393 renal
KM12 colon = test system: KM12 colon
MDA-N = test system: MDA-N
HT29 colon = test system: HT29 colon

| Structure (SMILES) | TGI (SK-MEL-2 melanoma) [µM] | TGI (OVCAR-8 ovarian) [µM] | TGI (SW-620 colon) [µM] | TGI (NCI-H460 lung) [µM] | TGI (TK-10 renal) [µM] | TGI (T-47D breast) [µM] | TGI (SN12C renal) [µM] | TGI (NCI/ADR-RES ovarian) [µM] | TGI (SF-539 CNS) [µM] | TGI (MCF7 breast) [µM] | TGI (SF-268 CNS) [µM] | TGI (CAKI-1 renal) [µM] | TGI (MOLT-4 leukemia) [µM] | TGI (HS 578T breast) [µM] | TGI (CCRF-CEM leukemia) [µM] | TGI (NCI-H23 lung) [µM] | TGI (RXF 393 renal) [µM] | TGI (KM12 colon) [µM] | TGI (MDA-N) [µM] | TGI (HT29 colon) [µM] |
| --- | --- | --- | --- | --- | --- | --- | --- | --- | --- | --- | --- | --- | --- | --- | --- | --- | --- | --- | --- | --- |
| COc1cc(Nc2cnc3cc(F)c(F)cc3n2)cc(OC)c1OC | > 100 | > 100 | > 100 | > 100 | > 100 | > 100 | > 100 | > 100 | > 100 | > 100 | > 100 | > 100 | > 100 | > 100 | > 100 | > 100 | > 100 | > 100 | > 100 | > 100 |
| O=C(O)c1nc(-c2ccccc2)ncc1-c1nnnn1-c1ccccc1 | > 100 | > 100 | > 100 | > 100 | > 100 | > 100 | > 100 | > 100 | > 100 | > 100 | > 100 | > 100 | > 100 | > 100 | > 100 | > 100 | > 100 | > 100 | > 100 | > 100 |
| Oc1ccc2ccccc2c1/C=C/c1ccc2c(Br)cc(Br)c(O)c2n1 | 29.7 | 20.1 | 25.1 | 16.2 | 23.2 | 35.4 | 20.9 | 12.9 | 13.6 | 14.5 | 21.8 | 26.7 | 15.4 | 49.4 | 15.6 | 24.7 | 24.7 | 30.9 | 26.7 | 41.4 |
| C[N+](C)([O-])CCC=C1c2ccccc2CCc2ccccc21 | 36.8 | 52.6 | 62.3 | > 100 | > 100 | 77.7 | 62.9 | 69.3 | > 100 | 48.2 | 54.6 | 79.4 | 40.7 | 64.9 | 40.7 | > 100 | 39.8 | 36.3 | 65.3 | 67.9 |
| C[C@]12CC[C@H](O)CC1=CC[C@@H]1[C@@H]2CC[C@]2(C)C(=O)[C@@H](N3CCOCC3)C[C@@H]12 | > 100 | > 100 | > 100 | > 100 | > 100 | > 100 | > 100 | > 100 | > 100 | > 100 | > 100 | > 100 | > 100 | > 100 | > 100 | > 100 | > 100 | > 100 | > 100 | > 100 |
| CC(C)(C)c1cc(C(P(=O)(c2ccccc2)c2ccccc2)P(=O)(c2ccccc2)c2ccccc2)cc(C(C)(C)C)c1O | 3.88 | 8.95 | > 9.23 | 4.44 | 9.87 | > 10 | > 9.06 | 6.16 | 3.88 | > 8.8 | > 9.47 | 9.9 | > 8.09 | 6.27 | 7.88 | 7.3 | 7.09 | 3.37 | 3.93 | 4.39 |
| CC(=O)c1c2c(cc3c1CC1(Cc4ccccc4C1=O)C3)CCC2 (stereo not given) | 92 | 89.1 | > 100 | > 100 | > 100 | 49.3 | > 100 | 53.3 | > 100 | 44.3 | > 100 | 66 | 29.1 | > 100 | > 100 | > 100 | 59.1 | 49 | > 100 | > 100 |
| O=C(NCCCCCCNC(=O)c1cccc2ccccc12)Nc1cccc2ccccc12 | > 100 | > 100 | > 100 | > 100 | > 100 | > 100 | > 100 | > 100 | > 100 | > 100 | > 100 | > 100 | > 100 | > 100 | > 100 | > 100 | > 100 | > 100 | > 100 | > 100 |
| COc1cc(C2c3cc4c(cc3OC(N3CCCC3)C2C)OCO4)cc(OC)c1O (stereo not given) | > 85.9 | > 100 | > 100 | > 100 | 58.6 | > 100 | > 83.7 | 37 | 41.2 | > 100 | > 100 | > 95.1 | > 100 | 37.4 | > 100 | > 82.1 | > 42.7 | > 100 | 6.17 | > 87.7 |
| O=[N+]([O-])c1ccc(/C=N/n2c(CO)nc3ccccc32)o1 | 24.1 | 25.3 | 29.1 | 16.3 | 19.2 | 47.9 | 18.1 | 74.7 | 55 | 15.2 | 22.7 | 24.8 | 7.12 | 35.6 | 36.8 | 20 | 18.3 | 15.4 | 13.3 | 10.3 |
| C=C1CC(c2ccc(OCCCN3C(=O)c4ccccc4C3=O)c(OC)c2)OC1=O (stereo not given) | 18.4 | 15.1 | 4.75 | 14.5 | 10.8 | 9.96 | 25.4 | > 100 | 1.69 | 0.48 | 23 | 5.16 | 2.72 | 32.4 | 3.79 | 18.4 | 7 | 28.2 | 16.4 | 13.3 |
| Cc1ccc(S(=O)(=O)N/N=C/C(=C/c2ccc(Cl)cc2)CC(/C=N/NS(=O)(=O)c2ccc(C)cc2)=C\c2ccc(Cl)cc2)cc1 | 24.9 | 12.8 | 27.6 | 30.3 | 45.6 | 19.2 | 35 | 94.3 | 34.2 | 12.6 | 55.2 | 68.4 | 6.62 | 21.5 | 8.8 | 26.8 | 7.38 | 47.2 | 26.7 | 24.1 |
| O=Cc1ccc2c(c1)CC1(C2)Cc2ccc3c(c2C1)CCC3 (stereo not given) | 14 | 29.8 | 15.2 | 38.7 | 40.5 | > 85.3 | 23.7 | 27.8 | 26.1 | 22.8 | 41.9 | 46.8 | 31.9 | 21.5 | 21.1 | 33.6 | 28.5 | 33.1 | 4.85 | 36.8 |
| C=C1C[C@@H]2O[C@H]3[C@H]4[C@@H](C[C@@H](C)[C@@H](OC(C)=O)[C@H]42)[C@@H](C)CO[C@@]3(C)[C@H](OC(C)=O)C[C@H]1O | > 100 | > 100 | > 100 | > 100 | > 100 | > 100 | > 100 | > 100 | > 100 | > 100 | > 100 | > 100 | 85.6 | > 100 | 49.5 | > 100 | > 100 | > 100 | > 100 | > 100 |
| Cc1cccc(-c2nc3ccc([N+](=O)[O-])cc3c(=O)o2)c1 | > 100 | > 100 | > 100 | > 100 | > 100 | > 100 | > 100 | > 100 | > 100 | > 100 | > 100 | > 100 | > 100 | 97.9 | 96.7 | > 100 | > 100 | > 100 | > 100 | > 100 |
| CN(c1ccc(Cl)cc1)S(=O)(=O)c1ccc([N+](=O)[O-])cc1 | > 100 | > 100 | > 100 | > 100 | > 100 | > 100 | > 100 | > 100 | > 100 | > 100 | > 100 | > 100 | > 100 | > 100 | > 100 | > 100 | > 100 | > 100 | > 100 | > 100 |
| O=[N+]([O-])c1cc2oc(COc3ccccc3)nc2cc1Cl | 44.2 | > 100 | > 100 | 53.6 | > 100 | 81.4 | 65.1 | 61.2 | 45.8 | > 100 | > 100 | 67.6 | > 100 | > 100 | > 100 | 40.8 | 69.5 | 51.3 | 69.6 | > 100 |
| CCC1(CC)SCc2nc3ccccc3n21 | 85.3 | > 100 | > 100 | > 100 | > 100 | > 100 | > 100 | 86 | > 100 | 93.7 | > 100 | 95.7 | 84.3 | 82.9 | > 100 | > 100 | 94.5 | 61.5 | > 100 | > 100 |
